From patent US20220324862A1, “PYRIDOPYRIMIDINONE COMPOUNDS” (Acerand Therapeutics (USA) Limited, priority 2021, published 2022) come the findings set out here.

This experiment has as its target T1, protein-protein interaction between SOS1 and KRAS-G12D (Homo sapiens, UniProt Q07889).
T1 construct: The purified GST-SOS1 catalytic domain (residues 564-1049) was first diluted in assay buffer; made in house; host or cells: E. coli BL21 (DE3) for SOS1; E. coli BL21 carrying a BirA plasmid for KRAS-G12D
T1 sequence (Q07889 564-1049): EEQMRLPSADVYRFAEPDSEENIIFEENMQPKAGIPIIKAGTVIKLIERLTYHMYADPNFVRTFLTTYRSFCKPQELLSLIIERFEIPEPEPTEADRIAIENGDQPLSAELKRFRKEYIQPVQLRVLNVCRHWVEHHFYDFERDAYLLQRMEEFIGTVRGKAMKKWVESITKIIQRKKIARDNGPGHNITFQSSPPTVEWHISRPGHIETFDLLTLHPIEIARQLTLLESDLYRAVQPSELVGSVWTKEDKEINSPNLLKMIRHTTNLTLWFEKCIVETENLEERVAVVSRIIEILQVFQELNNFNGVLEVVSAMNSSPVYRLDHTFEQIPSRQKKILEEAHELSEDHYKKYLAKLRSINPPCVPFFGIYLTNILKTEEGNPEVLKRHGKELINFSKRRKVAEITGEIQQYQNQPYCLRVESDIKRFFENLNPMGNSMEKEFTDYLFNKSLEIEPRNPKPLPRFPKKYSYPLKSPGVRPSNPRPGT
The experiment in a line: HTRF Based Protein-Protein Interaction Assay. The experiment is classed as binding. To be noted: HTRF; GST-SOS1 2.5 nM, KRAS-G12D 100 nM, GDP 10 uM; read-out: IC50 value, inhibition of SOS1/KRAS-G12D protein-protein interaction. In outline:
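GST-SOS1 (residues 564-1049, 2.5 nM) preincubated 15 min at 25° C with compound (0.5 nM-10 μM, 3-fold), then biotinylated avi-KRAS-G12D (1-169, 100 nM) with 10 uM GDP added for 60 min. HTRF read after 5 h with anti-GST-Tb cryptate/streptavidin-XL665; buffer HEPES pH 7.5, Brij-35, TCEP, BSA.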
(TR-FRET usually uses a lanthanide donor and a delayed reading to cut background.)
Turning to `C#C[C@@H](Nc1nc(C)nc2cc(=O)n(C3(C(F)F)CC3)cc12)c1cccc(C(F)(F)F)c1C` [Compound 9, (R)-6-(1-(difluoromethyl)cyclopropyl)-2-methyl-4-((1-(2-methyl-3-(trifluoromethyl)phenyl)prop-2-yn-1-yl)amino)pyrido[4,3-d]pyrimidin-7(6H)-one], the IC50 was under 100 nM.

For `C#C[C@@H](Nc1nc(C)nc2c1cc(C1(OC)CCN(C(C)=O)CC1)c(=O)n2C)c1cccc(C(F)(F)F)c1C` [Compound 55, 6-(1-acetyl-4-methoxypiperidin-4-yl)-2,8-dimethyl-4-{[(1R)-1-[2-methyl-3-(trifluoromethyl)phenyl]prop-2-yn-1-yl]amino}-7H,8H-pyrido[2,3-d]pyrimidin-7-one], the IC50 was under 100 nM. Then `C#C[C@@H](Nc1ncnc2c1cc(C1(O)CCN(C(C)=O)C1)c(=O)n2C)c1cccc(C(F)F)c1F` (stereo partly drawn) [Compound 43, 6-(1-acetyl-3-hydroxypyrrolidin-3-yl)-4-{[(1R)-1-[3-(difluoromethyl)-2-fluorophenyl]prop-2-yn-1-yl]amino}-8-methyl-7H,8H-pyrido[2,3-d]pyrimidin-7-one], with 100 to 200 nM; and `C#C[C@@H](Nc1nc(C)nc2cc(=O)n(C3CCOCC3)cc12)c1cccc(C(F)(F)F)c1C` [Compound 4, (R)-2-methyl-4-((1-(2-methyl-3-(trifluoromethyl)phenyl)prop-2-yn-1-yl)amino)-6-(tetrahydro-2H-pyran-4-yl)pyrido[4,3-d]pyrimidin-7(6H)-one], with under 100 nM; and `C#C[C@@H](Nc1ncnc2c1cc(C1(NC(C)=O)CCOCC1)c(=O)n2C)c1cccc(C(F)(F)F)c1C` [Compound 58, (R)-N-(4-(8-methy-4-((1-(2-methyl-3-(trifluoromethyl)phenyl)prop-2-yn-1-yl}amino)-7-oxo-7,8-dihydropyrido[2,3-d]pyrimidin-6-yl)tetrahydro-2H-pyran-4-yl)acetamide], with 100 to 200 nM. Regarding `C#C[C@@H](Nc1ncnc2c1cc(C1(O)CCN(C(C)=O)CC1)c(=O)n2C)c1cccc(C(F)F)c1F` [Compound 46, 6-(1-acetyl-4-hydroxypiperidin-4-yl)-4-{[(1R)-1-[3-(difluoromethyl)-2-fluorophenyl]prop-2-yn-1-yl]amino}-8-methyl-7H,8H-pyrido[2,3-d]pyrimidin-7-one], the IC50 was under 100 nM.

In the case of `C#C[C@@H](Nc1ncnc2c1cc(C1(NC(C)=O)CCN(C(C)=O)CC1)c(=O)n2C)c1cccc(C(F)(F)F)c1C` [Compound 57, (R)-N-(1-acetyl-4-(8-methy-4-((1-(2-methyl-3-(trifluoromethyl)phenyl)prop-2-yn-1-yl)amino)-7-oxo-7,8-dihydropyrido[2,3-d]pyrimidin-6-yl)piperidin-4-yl)acetamide], the IC50 was under 100 nM. Regarding `C#C[C@@H](Nc1ncnc2c1cc(C1(OC)CCN(C(C)=O)C1)c(=O)n2C)c1cccc(C(F)F)c1F` (stereo partly drawn) [Compound 49, 6-(1-acetyl-3-methoxypyrrolidin-3-yl)-4-{[(1R)-1-[3-(difluoromethyl)-2-fluorophenyl]prop-2-yn-1-yl]amino}-8-methyl-7H,8H-pyrido[2,3-d]pyrimidin-7-one], the IC50 was under 100 nM. For the compound `C#C[C@@H](Nc1ncnc2c1cc(C1(OC)CCN(C(C)=O)CC1)c(=O)n2C)c1cccc(C(F)F)c1F` [Compound 48, (R)-6-(1-acetyl-4-methoxypiperidin-4-yl)-4-((1-(3-(difluoromethyl)-2-fluorophenyl)prop-2-yn-1-yl)amino)-8-methylpyrido[2,3-d]pyrimidin-7(8H)-one], the IC50 fell in the range of 100 to 200 nM. Turning to `C#C[C@@H](Nc1nc(C)nc2c1cc(C1(O)CCN(C(C)=O)CC1)c(=O)n2C)c1cccc(C(F)(F)F)c1C` [Compound 54, 6-(1-acetyl-4-hydroxypiperidin-4-yl)-2,8-dimethyl-4-{[(1R)-1-[2-methyl-3-(trifluoromethyl)phenyl]prop-2-yn-1-yl]amino}-7H,8H-pyrido[2,3-d]pyrimidin-7-one], the IC50 was under 100 nM. As for `C#C[C@@H](Nc1nc(C)nc2c1cc(C1(F)CCN(C(C)=O)CC1)c(=O)n2C)c1cccc(C(F)(F)F)c1C` [Compound 56, 6-(1-acetyl-4-fluoropiperidin-4-yl)-2,8-dimethyl-4-{[(1R)-1-[2-methyl-3-(trifluoromethyl)phenyl]prop-2-yn-1-yl]amino}-7H,8H-pyrido[2,3-d]pyrimidin-7-one], the figure is under 100 nM.
